Literature values, collected in patent publication US10952973B2, “Production method of pregabalin-containing composition and pregabalin-containing composition” (NITTO DENKO CORPORATION, priority 2018, dated 2021).

CCCCCCCCCCCCOS(=O)(=O)O [dodecylsulfuric acid]
pKa of the acid aqueous solution (23° C., 0.35 mol/L aqueous solution): −3

CC(C)C[C@H](CN)CC(=O)O [pregabalin, Pregabalin]
acid dissociation constant (pKa) of the carboxyl group (carboxyl group of pregabalin): about 4.2
